Results: patent publication US20110028566A1, “COMPOSITIONS AND PRODUCTS CONTAINING CYCLOALIPHATIC DIOL ANTIMICROBIAL AGENTS AND METHODS OF USING THE COMPOSITIONS AND PRODUCTS” (EASTMAN CHEMICAL COMPANY, priority 2009, published 2011)

How the values were obtained:
Experiment in all cases: Microbial challenge testing in BPW
Type in all cases: cell-based
Aspergillus niger = tested on: Aspergillus niger
Description: (§1) The microorganisms used in challenge tests are given in Table 3, designated as either ATCC (American Type Culture Collection) or wild type. These wild type organisms were problematic organisms previously isolated from chemical products. In the description for each organism, the bacteria are indicated as either GN (Gram negative) or GP (Gram positive).
(§2) All of the microorganisms were grown in Tryptose Soy Broth (TSB), DIFCO™ available from Becton, Dickinson and Company, containing 1% dextrose. Aspergillus niger and Candida albicans were incubated at 22° C.±2° C. for at least 96 hours. All bacteria were incubated at 35° C.±2° C. in a humidified incubator for at least 96 hours.
(§3) Aspergillus niger and Candida albicans were also grown on Sabouraud dextrose agar (SDA) at 22° C.±2° C. for 7 to 14 days or until full sporulation was achieved.
(§4) The following procedure was followed to determine the amount of each challenge material (inoculum broth) required to produce a 10^8 cfu/mL challenge, which is equivalent to a final test-sample microbial concentration of 10^5 to 10^6 cfu (colony-forming units)/mL.
(§5) Using a sterile serological pipette, 1 mL of the growth from each TSB culture was transferred into tubes containing 9 mL phosphate buffer (pH 7.2) and mixed thoroughly. This process was repeated to make serial 1:10 dilutions. Then 0.1 mL of each sample and dilution was inoculated onto agar plates to produce the equivalent of a further 1:10 dilution. C. albicans and A. niger were inoculated onto SDA and bacteria were inoculated onto Plate Count Agar (PCA), DIFCO™ available from Becton, Dickinson and Company. The 0.1 mL aliquots were evenly distributed on the plates using the spread-plate technique. The spread-plate technique is performed by spreading the aliquot over the entire plate surface using a sterile spreading rod while rotating the plate with a rotary auto-plater. After the inoculum was absorbed completely, each plate was inverted and incubated (fungi at 22° C.±2° C. and bacteria at 35° C.±2° C.).
(§6) After incubation for at least 48 hours, colonies that had developed on the agar plates were counted and recorded with the corresponding dilution. If counting had to be delayed temporarily, plates were refrigerated, preferably no more than 24 hours, until they could be counted. The number of cfu/mL was determined by multiplying the count by the dilution factor for that particular plate.
(§7) Turbidity in Nepholemetric Turbidity Units (NTU) was measured for each serial dilution using the HF-Micro 100 Model Turbidimeter. For each microorganism, the plate counts were compared to the turbidity readings.
Aspergillus niger cultures were harvested and spores dislodged from the SDA on which they were grown by rubbing the growth gently with a sterile inoculating loop. The spores were then mixed into the broth culture that had been incubated with a sterile magnetic stir bar to reduce pellicle formation. The spore-culture mixture was filtered repeatedly through sterile, non-absorbent cotton and harvested repeatedly, adjusting vegetative cells and spores to a level of 1.0×10^8. A hemocytometer was used to verify the final challenge concentration.
(§8) Control substrates (“broth alone”) were prepared for each microorganism separately in triplicate by adding 13.5 mL of BPW (pH 7.0) containing 1% (w/v) dextrose to each 20-mL glass tube; then adding 1.5 mL challenge material to produce a final concentration at time zero of 10^5 to 10^6 cfu/mL and a total volume of 15 mL.
(§9) Test sample substrates were prepared containing each test material (1,4-CHDM, etc) or combination of test materials at the concentrations shown in Tables 5 and 6.

Candida albicans = tested on: Candida albicans
Description: as §1, §2, §3, §4, §5, §6, §7
On the day of challenge, the Candida albicans inoculum broth was poured through non-absorbent sterile gauze and centrifuged. The […] was then diluted with phosphate buffer (pH 7.2) until the desired turbidity was reached. Using a hemocytometer, a determination was made whether the challenge contained the desired concentration. Dilutions were made through 1.0×10^8 and three SDA spread plates were inoculated with 0.1 mL of each dilution.
as §8, §9

Aeromonas sp. = tested on: Aeromonas sp.
Description: as §1, §2, §4, §5, §6, §7, §8
(§10) Test sample substrates were prepared containing each test material (1,4-CHDM, etc) or combination of test materials at the concentrations shown in Tables 5 and 6. Sample substrates were prepared in triplicate, except those substrates containing PE or CG which were prepared in duplicate. Substrates were prepared by adding BPW containing 1% (w/v) dextrose to each 20-mL glass tube, then adding the test material in the amount appropriate to achieve the desired weight/volume percent (g/100 mL) and to obtain a total volume of BPW with dextrose and test material of 13.5 mL. Then 1.5 mL challenge material was added to produce a final concentration at time zero of 10^5 to 10^6 cfu/mL of the respective organism and a total test sample substrate volume of 15 mL.
(§11) After mixing, all challenged substrates were incubated at 35° C.±2° C. for 14 days and then at ambient room temperature.

Bacillus subtilis = tested on: Bacillus subtilis
Description: as §1, §2, §4, §5, §6, §7, §8, §10, §11

Burkholderia cepacia = tested on: Burkholderia cepacia
Description: as §1, §2, §4, §5, §6, §7, §8, §10, §11

Escherichia coli = conditions: 0.05%
Description: as §1, §2, §4, §5, §6, §7, §8, §10, §11

O=c1[nH]sc2ccccc12 [BIT, 1,2-benzisothiazolin-3-one]
Grade code A. niger (Aspergillus niger; 0.05%, 3 days incubation): 4 | Grade code A. niger (Aspergillus niger; 0.05%, 13 days incubation): 4 | Grade code A. niger (Aspergillus niger; 0.05%, 30 days incubation): 4 | Grade code A. niger (Aspergillus niger; 0.2%, 3 days incubation): 4 | Grade code A. niger (Aspergillus niger; 0.2%, 13 days incubation): 4 | Grade code A. niger (Aspergillus niger; 0.2%, 30 days incubation): 4 | Grade code C. albicans (Candida albicans; 0.05%, 3 days incubation): 4 (1001 to 10,000 colonies (thus 10,000 cfu/mL to 100,000 cfu/mL)) | Grade code C. albicans (Candida albicans; 0.05%, 14 days incubation): 4 (1001 to 10,000 colonies (thus 10,000 cfu/mL to 100,000 cfu/mL)) | Grade code C. albicans (Candida albicans; 0.05%, 30 days incubation): 4 (1001 to 10,000 colonies (thus 10,000 cfu/mL to 100,000 cfu/mL)) | Grade code C. albicans (Candida albicans; 0.2%, 3 days incubation): 4 (1001 to 10,000 colonies (thus 10,000 cfu/mL to 100,000 cfu/mL)) | Grade code C. albicans (Candida albicans; 0.2%, 14 days incubation): 3 (101 to 1000 colonies (thus 1000 to 10,000 cfu/mL)) | Grade code C. albicans (Candida albicans; 0.2%, 30 days incubation): 3 (101 to 1000 colonies (thus 1000 to 10,000 cfu/mL)) | Grade code Aeromonas sp (Aeromonas sp.; 0.05%, 3 days incubation): 5 (More than 10,000 colonies estimated (thus >100,000 cfu/mL)) | Grade code Aeromonas sp (Aeromonas sp.; 0.05%, 14 days incubation): 4 (1001 to 10,000 colonies (thus 10,000 cfu/mL to 100,000 cfu/mL)) | Grade code Aeromonas sp (Aeromonas sp.; 0.05%, 30 days incubation): 4 (1001 to 10,000 colonies (thus 10,000 cfu/mL to 100,000 cfu/mL)) | Grade code Aeromonas sp (Aeromonas sp.; 0.2%, 3 days incubation): 4 (1001 to 10,000 colonies (thus 10,000 cfu/mL to 100,000 cfu/mL)) | Grade code Aeromonas sp (Aeromonas sp.; 0.2%, 14 days incubation): 2 (52 to 100 colonies counted (thus 520 to 1000 cfu/mL)) | Grade code Aeromonas sp (Aeromonas sp.; 0.2%, 30 days incubation): 2 (52 to 100 colonies counted (thus 520 to 1000 cfu/mL)) | Grade code B. subtilis (Bacillus subtilis; 0.05%, 3 days incubation): 4 (1001 to 10,000 colonies (thus 10,000 cfu/mL to 100,000 cfu/mL)) | Grade code B. subtilis (Bacillus subtilis; 0.05%, 14 days incubation): 4 (1001 to 10,000 colonies (thus 10,000 cfu/mL to 100,000 cfu/mL)) | Grade code B. subtilis (Bacillus subtilis; 0.05%, 30 days incubation): 4 (1001 to 10,000 colonies (thus 10,000 cfu/mL to 100,000 cfu/mL)) | Grade code B. subtilis (Bacillus subtilis; 0.2%, 3 days incubation): 4 (1001 to 10,000 colonies (thus 10,000 cfu/mL to 100,000 cfu/mL)) | Grade code B. subtilis (Bacillus subtilis; 0.2%, 14 days incubation): 4 (1001 to 10,000 colonies (thus 10,000 cfu/mL to 100,000 cfu/mL)) | Grade code B. subtilis (Bacillus subtilis; 0.2%, 30 days incubation): 4 (1001 to 10,000 colonies (thus 10,000 cfu/mL to 100,000 cfu/mL)) | Grade code B. cepacia (Burkholderia cepacia; 0.05%, 3 days incubation): 4 (1001 to 10,000 colonies (thus 10,000 cfu/mL to 100,000 cfu/mL)) | Grade code B. cepacia (Burkholderia cepacia; 0.05%, 14 days incubation): 4 (1001 to 10,000 colonies (thus 10,000 cfu/mL to 100,000 cfu/mL)) | Grade code B. cepacia (Burkholderia cepacia; 0.05%, 30 days incubation): 4 (1001 to 10,000 colonies (thus 10,000 cfu/mL to 100,000 cfu/mL)) | Grade code B. cepacia (Burkholderia cepacia; 0.2%, 3 days incubation): 3 (101 to 1000 colonies (thus 1000 to 10,000 cfu/mL)) | Grade code B. cepacia (Burkholderia cepacia; 0.2%, 14 days incubation): 1 (1 to 51 colonies counted (thus 10 to 510 cfu/mL)) | Grade code B. cepacia (Burkholderia cepacia; 0.2%, 30 days incubation): 2 (52 to 100 colonies counted (thus 520 to 1000 cfu/mL)) | Grade code E. coli (Escherichia coli; 3 days incubation): 4 (1001 to 10,000 colonies (thus 10,000 cfu/mL to 100,000 cfu/mL)) | Grade code E. coli (Escherichia coli; 14 days incubation): 4 (1001 to 10,000 colonies (thus 10,000 cfu/mL to 100,000 cfu/mL)) | Grade code E. coli (Escherichia coli; 30 days incubation): 4 (1001 to 10,000 colonies (thus 10,000 cfu/mL to 100,000 cfu/mL))
